For the assay, the target named is T1, human DP2 (Homo sapiens, UniProt Q9Y5Y4).
T1 construct: expressed in transfected cells; membranes prepared
T1 sequence (Q9Y5Y4 1-395): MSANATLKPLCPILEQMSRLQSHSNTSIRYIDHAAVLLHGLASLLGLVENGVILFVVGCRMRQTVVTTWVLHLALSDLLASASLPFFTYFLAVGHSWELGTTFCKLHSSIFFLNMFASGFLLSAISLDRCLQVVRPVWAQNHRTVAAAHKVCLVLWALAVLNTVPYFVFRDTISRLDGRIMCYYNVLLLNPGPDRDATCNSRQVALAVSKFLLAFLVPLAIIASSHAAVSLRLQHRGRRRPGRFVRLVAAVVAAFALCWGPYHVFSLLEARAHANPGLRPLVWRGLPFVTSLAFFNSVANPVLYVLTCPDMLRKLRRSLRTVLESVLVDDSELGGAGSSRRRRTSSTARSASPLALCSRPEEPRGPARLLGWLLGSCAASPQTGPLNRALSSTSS
The experiment in a line: DP-2 binding inhibition assay (3H-PGD2, membranes of DP2-expressing K562 cells). In a few lines: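 Displacement of 3H-PGD2 was measured by filtration and scintillation counting after 60 min at room temperature, using membranes of DP2-transfected K562 cells in 0.1% BSA, 1% HSA or 4% HSA.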

Setting [1] is: 4% HSA, read-out: EC50 (nM) 4% HSA.
The mark [2] stands for this setting: 0.1% BSA, read-out: EC50 (nM) 0.1% BSA.
[3] abbreviates: 1% HSA, read-out: EC50 (nM) 1% HSA.

Data on 33 compounds can be found in patent publication US8785445B2 (Array BioPharma Inc., priority 2008, dated 2014).

Each structure is given as a SMILES string. Where two headings read alike, the source gives them in different places.

For the compound `CCOc1ncccc1CCNC(=O)c1ccc(Oc2cc3c(cc2Cl)C(C(=O)O)CCO3)cc1` (stereo not drawn) [Example 213, 6-chloro-7-(4-(2-(2-ethoxypyridin-3-yl)ethylcarbamoyl)phenoxy) chroman-4-carboxylic acid], the EC50 (commonly the concentration at which the effect is half-maximal) under setting [1] was 188 nM.

In the case of `O=C(NCCn1ccc(Cl)cc1=O)c1ccc(Oc2cc3c(cc2Cl)C(C(=O)O)CCO3)cc1` (stereo not drawn) [Example 216, 6-chloro-7-(4-(2-(4-chloro-2-oxopyridin-1(2H)-yl)ethylcarbamoyl)phenoxy)chroman-4-carboxylic acid], the EC50 under setting [1] came out at 2230 nM.

With `Cc1cccc2ccc(NC(=O)c3ccc(Oc4cc5c(cc4Cl)C(C(=O)O)CCO5)cc3)nc12` (stereo not drawn) [Example 24, 6-Chloro-7-(4-(8-methylquinolin-2-ylcarbamoyl)phenoxy)chroman-4-carboxylic acid], the concentration giving a half-maximal response (EC50) under setting [1] was 764 nM. On the same count and under the same terms, for `COc1ccc2nc(NC(=O)c3ccc(Oc4cc5c(cc4Cl)C(C(=O)O)CCO5)cc3)ccc2c1` (stereo not drawn) [Example 22, 6-Chloro-7-(4-(6-methoxyquinolin-2-ylcarbamoyl)phenoxy)chroman-4-carboxylic acid] the value was 466 nM; for `COc1cccc(CCNC(=O)c2ccc(Oc3cc4c(cc3Cl)C(C(=O)O)CCO4)cc2)n1` (stereo not drawn) [Example 218, 6-chloro-7-(4-(2-(6-methoxypyridin-2-yl)ethylcarbamoyl)phenoxy) chroman-4-carboxylic acid], 404 nM.

`O=C(Nc1cncc(-c2ccc(Cl)cc2)c1)c1ccc(Oc2cc3c(cc2Cl)C(C(=O)O)CCO3)cc1` (stereo not drawn) [Example 126, 6-Chloro-7-(4-(5-(4-chlorophenyl)pyridin-3-ylcarbamoyl)phenoxy)chroman-4-carboxylic acid]: under setting [1], the EC50 was determined as 469 nM. On to `O=C(Nc1ccc(-c2ccc(F)cc2)nn1)c1ccc(Oc2cc3c(cc2Cl)C(C(=O)O)CCO3)cc1` (stereo not drawn) [Example 66, Sodium 6-chloro-7-(4-(6-(4-fluorophenyl)pyridazin-3-ylcarbamoyl)phenoxy)chroman-4-carboxylate], for which the EC50 under setting [1] came to 306 nM.

Take `N#Cc1cc2c(cc1Oc1ccc(C(=O)Nc3cccc(-c4cccc(Cl)c4)n3)cc1)OCCC2C(=O)O` (stereo not drawn) [Example 50, 7-(4-(6-(3-Chlorophenyl)pyridin-2-ylcarbamoyl)phenoxy)-6-cyanochroman-4-carboxylic acid]: under setting [1], the EC50 came to 135 nM. Regarding `N#Cc1cc2c(cc1Oc1ccc(C(=O)Nc3nc4ccc(Cl)cc4s3)cc1)OCCC2C(=O)O` (stereo not drawn) [Example 196], the EC50 is 11 nM under setting [2] and 352 nM under setting [3]. Consider `O=C(Nc1nccc(-c2cccc(Cl)c2)n1)c1ccc(Oc2cc3c(cc2Cl)C(C(=O)O)CCO3)cc1` (stereo not drawn) [Example 133, 6-Chloro-7-(4-(4-(3-chlorophenyl)pyrimidin-2-ylcarbamoyl)phenoxy)chroman-4-carboxylic acid], for which the EC50 under setting [1] amounted to 261 nM. Take `N#Cc1cc2c(cc1Oc1ccc(C(=O)Nc3nc4c(Cl)cccc4s3)cc1)OCCC2C(=O)O` (stereo not drawn) [Example 199]: under setting [2], the EC50 is 10.8 nM. As to `O=C(NCCc1cccnc1C1CC1)c1ccc(Oc2cc3c(cc2Cl)C(C(=O)O)CCO3)cc1` (stereo not drawn) [Example 223, 6-chloro-7-(4-(2-(2-cyclopropylpyridin-3-yl)ethylcarbamoyl)phenoxy) chroman-4-carboxylic acid], the EC50 under setting [1] worked out at 210 nM. Consider `N#Cc1cc2c(cc1Oc1ccc(C(=O)Nc3ccc4ncoc4c3)cc1)OCCC2C(=O)O` (stereo not drawn) [Example 188, 7-(4-(benzo[d]oxazol-6-ylcarbamoyl)phenoxy)-6-cyanochroman-4-carboxylic acid], for which the half-maximal effective concentration (EC50) under setting [2] was 301 nM. In the case of `O=C(Nc1ccn(-c2ccc(F)c(F)c2)n1)c1ccc(Oc2cc3c(cc2Cl)C(C(=O)O)CCO3)cc1` (stereo not drawn) [Example 166, 6-chloro-7-(4-(1-(3,4-difluorophenyl)-1H-pyrazol-3-ylcarbamoyl)phenoxy)chroman-4-carboxylic acid], under setting [1], the EC50 was determined as 85.1 nM.

Regarding `O=C(Nc1cc(-c2ccc(Cl)cc2)no1)c1ccc(Oc2cc3c(cc2Cl)C(C(=O)O)CCO3)cc1` (stereo not drawn) [Example 161, 6-chloro-7-(4-(3-(4-chlorophenyl)isoxazol-5-ylcarbamoyl)phenoxy)chroman-4-carboxylic acid], the EC50 under setting [1] was determined as 74.6 nM.

As to `O=C(Nc1ccc(C(F)(F)F)nc1)c1ccc(Oc2cc3c(cc2Cl)C(C(=O)O)CCO3)cc1` (stereo not drawn) [Example 29, 6-Chloro-7-(4-(6-(trifluoromethyl)pyridin-3-ylcarbamoyl)phenoxy)chroman-4-carboxylic acid], the EC50 is 34.7 nM under setting [2], 661 nM under setting [3] and 49.5 nM under setting [1].

For the compound `O=C(Nc1nc(-c2ccc(F)cc2)cs1)c1ccc(Oc2cc3c(cc2Cl)C(C(=O)O)CCO3)cc1` (stereo not drawn) [Example 153, 6-chloro-7-(4-(4-(4-fluorophenyl)thiazol-2-ylcarbamoyl)phenoxy)chroman-4-carboxylic acid], the EC50 under setting [1] is 67.5 nM. Regarding `O=C(Nc1cnc(-c2cccc(Cl)c2)cn1)c1ccc(Oc2cc3c(cc2Cl)C(C(=O)O)CCO3)cc1` (stereo not drawn) [Example 96, 6-Chloro-7-(4-(5-(3-chlorophenyl)pyrazin-2-ylcarbamoyl)phenoxy)chroman-4-carboxylic acid], under setting [1], the EC50 was 274 nM. On the same count and under the same terms, for `N#Cc1cc2c(cc1Oc1ccc(C(=O)Nc3nnc(-c4ccccc4)s3)cc1)OCCC2C(=O)O` (stereo not drawn) [Example 146, 6-Cyano-7-(4-(5-phenyl-1,3,4-thiadiazol-2-ylcarbamoyl)phenoxy)chroman-4-carboxylic acid] the value was 728 nM; for `O=C(Nc1nnc(-c2ccc(Cl)cc2)s1)c1ccc(Oc2cc3c(cc2Cl)C(C(=O)O)CCO3)cc1` (stereo not drawn) [Example 149, 6-chloro-7-(4-(5-(4-chlorophenyl)-1,3,4-thiadiazol-2-ylcarbamoyl)phenoxy)chroman-4-carboxylic acid], 1660 nM; for `N#Cc1cc2c(cc1Oc1ccc(C(=O)Nc3cc4ccccc4cn3)cc1)OCCC2C(=O)O` (stereo not drawn) [Example 9, 6-Cyano-7-(4-(isoquinolin-3-ylcarbamoyl)phenoxy)chroman-4-carboxylic acid], 774 nM. With `N#Cc1cc2c(cc1Oc1ccc(C(=O)Nc3nc4c(F)cc(F)cc4s3)cc1)OCCC2C(=O)O` (stereo not drawn) [Example 202, 6-cyano-7-(4-(4,6-difluorobenzo[d]thiazol-2-ylcarbamoyl)phenoxy) chroman-4-carboxylic acid], the EC50 under setting [2] turned out to be 24.5 nM. As to `O=C(Nc1cccc(-c2ccc(F)cc2F)n1)c1ccc(Oc2cc3c(cc2Cl)C(C(=O)O)CCO3)cc1` (stereo not drawn) [Example 82, 6-Chloro-7-(4-(6-(2,4-difluorophenyl)pyridin-2-ylcarbamoyl)phenoxy)chroman-4-carboxylic acid], the EC50 under setting [1] came out at 120 nM. The same measure, in the same setting: to `O=C(Nc1ccc(-c2ccc(Cl)c(Cl)c2)nn1)c1ccc(Oc2cc3c(cc2Cl)C(C(=O)O)CCO3)cc1` (stereo not drawn) [Example 65, Sodium 6-chloro-7-(4-(6-(3,4-dichlorophenyl)pyridazin-3-ylcarbamoyl)phenoxy)chroman-4-carboxylate] belongs 96.2 nM. As for `O=C(Nc1ncc(-c2cccc(Cl)c2)cn1)c1ccc(Oc2cc3c(cc2Cl)C(C(=O)O)CCO3)cc1` (stereo not drawn) [Example 134, 6-Chloro-7-(4-(5-(3-chlorophenyl)pyrimidin-2-ylcarbamoyl)phenoxy)chroman-4-carboxylic acid], the EC50 under setting [1] turned out to be 426 nM. Same read-out and setting: to `CC(C)c1csc(NC(=O)c2ccc(Oc3cc4c(cc3Cl)C(C(=O)O)CCO4)cc2)n1` (stereo not drawn) [Example 156, 6-chloro-7-(4-(4-isopropylthiazol-2-ylcarbamoyl)phenoxy)chroman-4-carboxylic acid] belongs 157 nM; to `O=C(Nc1nnc(-c2ccccc2)s1)c1ccc(Oc2cc3c(cc2Cl)C(C(=O)O)CCO3)cc1` (stereo not drawn) [Example 148, 6-chloro-7-(4-(5-phenyl-1,3,4-thiadiazol-2-ylcarbamoyl)phenoxy)chroman-4-carboxylic acid], 5460 nM. Consider `O=C(Nc1cccc(-c2ccnc(C(F)(F)F)c2)n1)c1ccc(Oc2cc3c(cc2Cl)C(C(=O)O)CCO3)cc1` (stereo not drawn) [Example 113, 6-Chloro-7-(4-(2′-(trifluoromethyl)-2,4′-bipyridin-6-ylcarbamoyl)phenoxy)chroman-4-carboxylic acid], for which, under setting [1], the EC50 was determined as 452 nM. Still for that read-out and setting: to `O=C(Nc1cc(-c2ccc(F)cc2)n[nH]1)c1ccc(Oc2cc3c(cc2Cl)C(C(=O)O)CCO3)cc1` (stereo not drawn) [Example 181, 6-Chloro-7-(4-(3-(4-fluorophenyl)-1H-pyrazol-5-ylcarbamoyl)phenoxy)chroman-4-carboxylic acid] belongs 313 nM; to `O=C(Nc1nccc(-c2cccc(C(F)(F)F)c2)n1)c1ccc(Oc2cc3c(cc2Cl)C(C(=O)O)CCO3)cc1` (stereo not drawn) [Example 131, 6-Chloro-7-(4-(4-(3-(trifluoromethyl)phenyl)pyrimidin-2-ylcarbamoyl)phenoxy)chroman-4-carboxylic acid], 128 nM.

In the case of `O=C(Nc1ccc2ccccc2n1)c1ccc(Oc2cc3c(cc2Cl)C(C(=O)O)CCO3)cc1` (stereo not drawn) [Example 23, 6-Chloro-7-(4-(quinolin-2-ylcarbamoyl)phenoxy)chroman-4-carboxylic acid], under setting [1], the EC50 was determined as 586 nM.

For the compound `CC(C)Oc1ncccc1CCNC(=O)c1ccc(Oc2cc3c(cc2Cl)C(C(=O)O)CCO3)cc1` (stereo not drawn) [Example 228, 6-chloro-7-(4-(2-(2-isopropoxypyridin-3-yl)ethylcarbamoyl)phenoxy) chroman-4-carboxylic acid], the EC50 under setting [1] was 195 nM. The same measure, in the same setting: for `O=C(Nc1ccc2ccc(Cl)cc2n1)c1ccc(Oc2cc3c(cc2Cl)C(C(=O)O)CCO3)cc1` (stereo not drawn) [Example 17, 6-Chloro-7-(4-(7-chloroquinolin-2-ylcarbamoyl)phenoxy)chroman-4-carboxylic acid] the value was 178 nM.
